# Assay results as given in patent publication US6562828B1, “Amidine compounds” (Japan Tobacco Inc., priority 1998, dated 2003).
# Where a name gives a salt, the structure may show the parent alone.
# How the values were obtained:
# Human FIIa = biological target: T1, Human FIIa (Homo sapiens, UniProt P00734); experiment: Determination of anti-factor IIa (FIIa) activity, synthetic substrate S-2238; format: biochemical; conditions: S-2238, 37° C., pH 8.4, read-out: Experimental Example 2: anti-FIIa activity, IC50
# T1 construct: purchased Sigma
# normal plasma [1] = experiment: Determination of prothrombin time (PT), rat plasma; format: biochemical
# Protocol: (§1) Determination of prothrombin time (PT)
# (§2) Blood was taken from mouse, rat, crab-eating monkey and healthy human volunteers, and citric acid was added. The blood was centrifuged at 4° C. and 2000 G for 15 min to obtain normal plasma of various animals.
# (§3) Purified water (5 μl) containing various concentrations of test compound was added to plasma (45 μl) and the resultant mixtures were used as samples. […] (Baxter) was prepared and heated at […] for 5 min, and a sample (50 μl) was admixed with the thrombin reagent (100 μl). The time (PT) until precipitation of fibrin was measured. The drug concentration that doubled the PT hours of the drug untreated group was calculated and taken as CT2.
# Human FXa [2] = biological target: T2, Human FXa (Homo sapiens, UniProt P00742); experiment: Determination of anti-factor Xa (FXa) activity, synthetic substrate S-2222; format: biochemical; conditions: S-2222, 37° C., pH 8.4, read-out: Experimental Example 1: anti-FXa activity, IC50
# T2 construct: Human FXa [Enzyme research Laboratories (USA)] enzyme; purchased Enzyme Research Laboratories (USA)
# Protocol: Determination of Anti-factor Xa (FXa) Activity
# Human FXa [Enzyme research Laboratories (USA)] enzyme (40 μl, 0.16U/ml) and test compounds (40 l) adjusted to various concentrations were incubated in 0.1M Tris (Tris-hydroxymethyl-aminomethane) buffer (pH 8.4) containing 0.2M sodium chloride (herein to be referred to as 0.1 M tris-0.2M NaCl buffer) (40 μl) at 37° C. for 10 min. A synthetic substrate S-2222 (Daiichi Pure Chemical (Tokyo, Japan), 40 μl) adjusted to 0.8 mM was added and the mixture was incubated at 37° C. for 10 min. The reaction was stopped by addition of 60% acetic acid (40 μl) and absorbance at 405 nm was measured by Model 3550 (BIO-RAD). For the control, the solvent was used instead of the test compound.
# Target sequence in this assay (P00742 235-488 limits assumed): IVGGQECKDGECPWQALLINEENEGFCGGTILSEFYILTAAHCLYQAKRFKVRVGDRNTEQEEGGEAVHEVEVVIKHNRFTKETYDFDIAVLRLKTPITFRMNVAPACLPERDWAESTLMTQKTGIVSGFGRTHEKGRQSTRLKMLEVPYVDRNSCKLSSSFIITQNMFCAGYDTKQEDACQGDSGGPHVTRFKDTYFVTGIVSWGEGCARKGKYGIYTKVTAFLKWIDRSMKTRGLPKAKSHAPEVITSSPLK
# Target sequence in this assay (P00742 41-179 partner limits assumed): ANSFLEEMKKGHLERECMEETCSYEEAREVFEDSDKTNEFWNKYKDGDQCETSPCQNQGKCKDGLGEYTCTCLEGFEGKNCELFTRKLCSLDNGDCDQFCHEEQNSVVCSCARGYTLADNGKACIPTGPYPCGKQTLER
# normal plasma [3] = experiment: Determination of prothrombin time (PT), human plasma; format: biochemical
# Protocol: as §1, §2, §3
# normal plasma [4] = experiment: Determination of prothrombin time (PT), mouse plasma; format: biochemical
# Protocol: as §1, §2, §3
# [5] = test system: decrease of platelets and formation of FDP by thromboplastin; experiment: Blood coagulation model in rat (thromboplastin); format: in vivo; conditions: i.v. 10 min before thromboplastin, mean ± S.D, n = 3; for PLT value: counted 10 min later; for FDP value: measured 30 min later
# Protocol: Blood Coagulation Model in Rat
# Intravenous administration of thromboplastin (Sigma) to rat promotes coagulation system, which in turn decreases platelets and increases fibrin degradation product (FDP). Thus, the test compound was intravenously administered 10 min before thromboplastin administration and the inhibitory effects of the test compound on the decrease of platelets and the formation of FDP by thromboplastin were studied. The thromboplastin administered had such concentration as to form clots within 20 seconds from the addition of one plasma dose to two thromboplastin doses and was administered in 1 ml/kg dose. Platelets were counted (PLT value) 10 min later on a blood cell counter sysmex F-800 [Dade International Inc. (USA)], and FDP was measured 30 min later using FDP latex reagent for serum [Teikoku Hormone Mfg. Co., Ltd. (Tokyo, Japan)]. In every Example, the PLT value of the thromboplastin untreated group was (106±13)×10^4 and the FDP value of this group was 0±0 μg/ml.
# Human FXa [6] = biological target: T2, Human FXa; experiment: Oral administration test in mouse, human FXa inhibitory activity in serum; format: in vivo; conditions: ICR mice, mean ± S.D., n = 3
# Protocol: (§4) Human FXa inhibitory activity was measured as follows. Human FXa [Enzyme research Laboratories (USA)] enzyme (40 μl, 0.5 U/ml) and a 4-fold diluted plasma sample (40 μl) were incubated in 0.1M Tris-0.2M NaCl buffer (pH 8.4) (40 μl) at 37° C. for 10 min. A synthetic substrate S-2222 (Daiichi Pure Chemical (Tokyo, Japan), 40 μl) adjusted to 0.8 mM was added and the mixture was incubated at 37° C. for 5 min. The reaction was stopped by addition of 60% acetic acid (40 μl) and absorbance at 405 nm was measured by Model 3550 (BIO-RAD). For the control, serum or plasma obtained prior to blood sampling was used for measurement. Human FXa inhibitory activity was calculated as inhibition percentage (%) against control.
# Oral Administration Tests in Mouse
# A test compound dissolved in distilled water was orally administered to ICR mice (body weight 20-30 g, 4-6 weeks old) and the activity of the test compound was evaluated based on the human FXa inhibitory activity in serum as an indicator.
# At 30, 60, 120, 180 min from the oral administration, blood was taken from the eye ground using a hematocrit tube. The blood was centrifuged at 9000 G for 5 min and the obtained serum was used for the determination. Human FXa inhibitory activity was determined in the same manner as in the test by intravenous administration.
# Target sequence in this assay (P00742 235-488 limits assumed): as the sequence (P00742 235-488 limits assumed) above
# Target sequence in this assay (P00742 41-179 limits assumed): as the sequence (P00742 41-179 partner limits assumed) above
# Human FXa [7] = biological target: T2, Human FXa; experiment: Intravenous administration test in monkey, human FXa inhibitory activity in plasma; format: in vivo; conditions: crab-eating monkey, i.v., mean ± S.D., n = 3
# Protocol: as §4
# Target sequence in this assay (P00742 235-488 limits assumed): as the sequence (P00742 235-488 limits assumed) above
# Target sequence in this assay (P00742 41-179 limits assumed): as the sequence (P00742 41-179 partner limits assumed) above
# Intravenous Administration Tests in Monkey
# A test compound dissolved in physiological saline was intravenously administered to monkey (crab-eating monkey, body weight 3.5-4.5 kg) and the activity of the test compound was evaluated based on the human FXa inhibitory activity in plasma as an indicator.
# At 10, 30, 60, 120, 180 min from the intravenous administration, blood was taken from the saphenous vein with the passage of time and the blood was centrifuged at 2000 G for 10 min. The obtained citric acid plasma was used for the determination. Human FXa inhibitory activity was determined in the same manner as in the test using mouse.
# Human FXa [8] = biological target: T2, Human FXa; experiment: Oral administration test in monkey, human FXa inhibitory activity in plasma; format: in vivo; conditions: crab-eating monkey, mean ± S.D., n = 3
# Protocol: as §4
# Target sequence in this assay (P00742 235-488 limits assumed): as the sequence (P00742 235-488 limits assumed) above
# Target sequence in this assay (P00742 41-179 limits assumed): as the sequence (P00742 41-179 partner limits assumed) above
# Oral Administration Tests in Monkey
# A test compound dissolved in distilled water was orally administered to monkey (carb-eating monkey, body weight 3.5-4.5 kg) and the activity of the test compound was evaluated based on the human FXa inhibitory activity in plasma as an indicator.
# At 30, 60, 120, 240, 480 min from the oral administration, blood was taken from the saphenous vein with the passage of time and the blood was centrifuged at 2000 G for 10 min. The obtained citric acid plasma was used for the determination. Human FXa inhibitory activity was determined in the same manner as in the test by intravenous administration.
structure (smiles),measurement,setting,value
"CC(=N)N1CCC(Oc2ccc(N(Cc3nc4cc(C(=N)N)ccc4n3CC(=O)N[C@@H](C)c3ccccc3)C(=O)c3ccc(C(=O)O)cc3)cc2)CC1 [Example 17, (S)-4-[N-[5-Amidino-1-(1-phenylethylcarbamoylmethyl)benzimidazole-2-ylmethyl]-N-[4-(1-acetimidoylpiperidin-4-yloxy)phenyl]carbamoyl]benzoic Acid Dihydrochloride]",IC50,Human FIIa,> 10000 nM
same,CT2 (drug concentration that doubled the PT),normal plasma [1],2 µM
same,IC50,Human FXa [2],3 nM
same,CT2 (drug concentration that doubled the PT),normal plasma [3],0.5 µM
same,CT2 (drug concentration that doubled the PT),normal plasma [4],2 µM
same,PLT value,[5]; dose 0.01 mg/kg,41 ± 13 ×10^4 blood platelet/μl
same,FDP value,[5]; dose 0.01 mg/kg,6 ± 3 µg/mL
same,PLT value,[5]; dose 0.03 mg/kg,92 ± 11 ×10^4 blood platelet/μl
same,FDP value,[5]; dose 0.03 mg/kg,1 ± 1 µg/mL
same,PLT value,[5]; dose 1 mg/kg,108 ± 6 ×10^4 blood platelet/μl
same,FDP value,[5]; dose 1 mg/kg,0 ± 0 µg/mL
same,inhibition at 10 mg/kg,Human FXa [6]; 30 minutes,46 ± 3%
same,inhibition at 10 mg/kg,Human FXa [6]; 60 minutes,34 ± 7%
same,inhibition at 10 mg/kg,Human FXa [6]; 120 minutes,20%
same,inhibition at 10 mg/kg,Human FXa [6]; 180 minutes,21 ± 5%
same,inhibition at 1 mg/kg,Human FXa [7]; 10 minutes,90 ± 6%
same,inhibition at 1 mg/kg,Human FXa [7]; 30 minutes,90 ± 1%
same,inhibition at 1 mg/kg,Human FXa [7]; 60 minutes,86 ± 2%
same,inhibition at 1 mg/kg,Human FXa [7]; 120 minutes,77 ± 6%
same,inhibition at 1 mg/kg,Human FXa [7]; 180 minutes,65 ± 12%
same,inhibition at 10 mg/kg,Human FXa [8]; 30 minutes,62 ± 53%
same,inhibition at 10 mg/kg,Human FXa [8]; 60 minutes,62 ± 51%
same,inhibition at 10 mg/kg,Human FXa [8]; 120 minutes,83 ± 13%
same,inhibition at 10 mg/kg,Human FXa [8]; 240 minutes,68 ± 16%
same,inhibition at 10 mg/kg,Human FXa [8]; 480 minutes,27 ± 10%
